Experimental data from US11382956B2, “Amylin analogues” (Zealand Pharma A/S, priority 2016, dated 2022).
Numbered stars: 1 amine (or outer) side, 2 acyl side, 3 side chain; on linkers, the order of the positions; unused ones are H or OH. Bridge positions count the residues as written; N and C are the ends. Square brackets hold non-standard residues; d marks the D form. Peptide text beside a SMILES is read from it. * marks the point of attachment. C20 diacid = O=C(O)CCCCCCCCCCCCCCCCCCC(=O)*; γGlu = O=C(O)[C@H](CCC(=O)[*:2])N[*:1]; Hyp = O=C(O)[C@@H]1C[C@@H](O)CN1; NMeI = CC[C@H](C)[C@H](NC)C(=O)O; Aad = N[C@@H](CCCC(=O)O)C(=O)O; Sar = CNCC(=O)O

Assays:
[1] = target: T1, recombinant human amylin 3 receptor (hAMYR3) (Homo sapiens, UniProt O60896+P30988); test: hAMYR3 cAMP assay (AlphaScreen) in 1321N1 cells; type: cell-based; details: cAMP formation, 45 min stimulation
T1 construct: host or cells: human astrocytoma cell line 1321N1
T1 sequence (P30988 25-474): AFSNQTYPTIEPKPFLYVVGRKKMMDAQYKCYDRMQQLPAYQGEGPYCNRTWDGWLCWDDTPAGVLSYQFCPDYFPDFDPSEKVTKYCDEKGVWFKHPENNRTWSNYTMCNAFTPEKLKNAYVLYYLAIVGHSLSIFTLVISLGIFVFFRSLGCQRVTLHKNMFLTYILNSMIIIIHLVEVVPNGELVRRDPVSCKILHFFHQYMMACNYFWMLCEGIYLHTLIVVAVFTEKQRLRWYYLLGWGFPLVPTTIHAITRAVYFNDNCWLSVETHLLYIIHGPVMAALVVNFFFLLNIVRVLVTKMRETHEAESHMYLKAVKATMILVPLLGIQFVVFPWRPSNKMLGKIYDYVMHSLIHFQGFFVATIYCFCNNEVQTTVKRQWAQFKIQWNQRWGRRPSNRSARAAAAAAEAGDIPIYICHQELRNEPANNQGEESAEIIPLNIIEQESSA
T1 sequence (O60896 24-148 partner): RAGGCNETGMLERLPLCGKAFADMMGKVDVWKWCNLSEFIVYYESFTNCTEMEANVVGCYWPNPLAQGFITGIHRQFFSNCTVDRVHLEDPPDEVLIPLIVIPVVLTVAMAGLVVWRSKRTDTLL
In short: (§1)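 EC50 values come from curve fits over at least 7 peptide concentrations, with cAMP read by AlphaScreen competition after 1 h in the dark. Cells were 1321N1 lines carrying human calcitonin receptor, with RAMP3 co-expressed for AMY3, treated 45 min at room temperature in the presence of IBMX.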

[2] = Effect on acute food intake and body weight in normal Sprague Dawley rats; type: in vivo, Sprague Dawley (SD) rats; details: Dose: 30 nmol/kg sc, vehicle-corrected
Description: Sprague Dawley (SD) rats were obtained from Janvier Labs, France. The animals arrived at least 14 days before the study start to allow acclimatization to experimental conditions. From arrival and throughout the study, the rats were housed in groups of 2 to 4 (n=2-4) in a light-, temperature- and humidity-controlled room. Animals had access ad libitum to food (KLIBA 3430, Provimi Kliba AG, Switzerland) and water (domestic quality tap water) during the entire study. Per group 6-8 rats were included. A vehicle group and positive control group were included in each set of tests. […] Dosing volume was 2 ml/kg. Food intake was recorded online using an automated food intake system (HM02, MBRose, Denmark) for 4 days or manually at 0 h for a predose and then 24, 48, 72 and 96 h post dosing. Body weight was measured daily.
Statistical analyses were performed using GraphPad™ Prism version 7. The measured parameters were compared using two-way ANOVA followed by Dunnett's multiple comparison tests. Differences were considered statistically significant at p<0.05.

[3] = Assessment of physical stability: fibril formation by Thioflavin T fluorescence; type: physicochemical; design: key: FND = fibrillation not detected; FD = fibrillation detected; details: 1 mg/mL peptide; for Fibrillation (in buffer) pH4 acetate: 50 mM acetate buffer pH 4.0, 96 hours at 40° C.; for Fibrillation (in buffer) pH7 histidine: 50 mM histidine buffer pH 7.0, 96 hours at 40° C.; for Fibrillation (in buffer) pH7 phosphate: 50 mM phosphate buffer pH 7.0, 96 hours at 40° C.
In short: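 Fibrillation detected (FD) means a significant rise in ThT fluorescence over 96 hours at 40° C, read at 10 min intervals each preceded by 300 s automixing. Samples: 1 mg/mL peptide, 40 μM ThT, in 50 mM phosphate or histidine (pH 7.0) or acetate (pH 4.0), triplicate.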

[4] = Assessment of chemical stability in 40 mM buffers at 40° C. (RP-HPLC); type: physicochemical; details: 1 mg/mL; for % degradation after 72 h at 40° C. pH6 phosphate: phosphate buffer pH 6, 72 h; for % degradation after 14 days at 40° C. pH6 phosphate: phosphate buffer pH 6, 14 days; for % degradation after 72 h at 40° C. pH7 phosphate: phosphate buffer pH 7, 72 h; for % degradation after 14 days at 40° C. pH7 phosphate: phosphate buffer pH 7, 14 days; for % degradation after 72 h at 40° C. pH4 acetate: acetate buffer pH 4, 72 h
In short: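 Degradation is the main-peak area-% at each time point minus that at t=0, measured by C8 reversed-phase HPLC (TFA/acetonitrile/water gradient, 220 nm). Incubation at 40° C for 3 or 14 days, 1 mg/mL peptide in 40 mM buffer at pH 4, 6 or 7.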

[5] = target: T2, recombinant human calcitonin receptor (hCT-R) (Homo sapiens, UniProt P30988); test: hCT-R cAMP assay (AlphaScreen) in 1321N1 cells; type: cell-based; details: cAMP formation, 45 min stimulation
T2 construct: host or cells: human astrocytoma cell line 1321N1
T2 sequence (P30988 25-474): T1 sequence (P30988 25-474)
In short: as §1

Row | EC50 [1] | Fibrillation (in buffer) pH4 acetate [3] | Fibrillation (in buffer) pH7 histidine [3] | Fibrillation (in buffer) pH7 phosphate [3] | % degradation after 72 h at 40° C. pH6 phosphate [4] | % degradation after 14 days at 40° C. pH6 phosphate [4] | % degradation after 72 h at 40° C. pH7 phosphate [4] | % degradation after 14 days at 40° C. pH7 phosphate [4] | EC50 [5] | % degradation after 72 h at 40° C. pH4 acetate [4] | % degradation after 14 days at 40° C. pH4 acetate ([4]; acetate buffer pH 4, 14 days) | Compound | Body weight reduction in % at 48 h [2] | Food intake reduction in % at 48 h [2]
1 | 0.031 nM | FD | FND | FND | <1% | <1% | 3.0% | <1% | 0.116 nM | – | – | CC[C@H](C)[C@@H](C(=O)N[C@@H](CC(C)C)C(=O)N[C@@H](CO)C(=O)N[C@@H](CO)C(=O)N[C@H](C(=O)N[C@@H](CCC(=O)O)C(=O)N[C@H](C(=O)NCC(=O)N[C@@H](CO)C(=O)N[C@@H](CC(N)=O)C(=O)N[C@H](C(=O)N1C[C@H](O)C[C@H]1C(N)=O)[C@@H](C)O)C(C)C)[C@@H](C)O)N(C)C(=O)[C@H](C)NC(=O)CN(C)C(=O)[C@H](Cc1ccccc1)NC(=O)[C@H](CO)NC(=O)[C@H](CO)NC(=O)[C@H](CCCNC(=N)N)NC(=O)[C@H](CCC(N)=O)NC(=O)[C@H](CC(C)C)NC(=O)[C@H](Cc1ccccc1)NC(=O)[C@H](CCCC(=O)O)NC(=O)[C@H](C)NC(=O)[C@H](CC(C)C)NC(=O)[C@H](CCCNC(=N)N)NC(=O)[C@H](CCC(=O)O)NC(=O)[C@@H](NC(=O)[C@H](C)NC(=O)[C@@H]1CCCCNC(=O)C[C@H](NC(=O)[C@H](CCC(=O)O)NC(=O)CC[C@H](NC(=O)CCCCCCCCCCCCCCCCCCC(=O)O)C(=O)O)C(=O)NCC(=O)N[C@@H]([C@@H](C)O)C(=O)N[C@@H](C)C(=O)N[C@@H]([C@@H](C)O)C(=O)N1)[C@@H](C)O [Compound 37, [19CD]-isoGlu-ED()GTATK()ATERLA-Aad-FLQRSSFGly(Me)-A-Ile(Me)-LSSTEVGSNT-Hyp-NH2] ({C20 diacid-γGlu}-EDGTATKATERLA[Aad]FLQRSSF[Sar]A[NMeI]LSSTEVGSNT[Hyp]-NH2; lactam 2-7) | 4.3% | 24%
2 | 0.024 nM | FD | FND | FND | <1% | – | <1% | – | 0.094 nM | <1% | – | CC[C@H](C)[C@@H](C(=O)N[C@@H](CC(C)C)C(=O)N[C@@H](CO)C(=O)N[C@@H](CO)C(=O)N[C@H](C(=O)N[C@@H](CCC(=O)O)C(=O)N[C@H](C(=O)NCC(=O)N[C@@H](CO)C(=O)N[C@@H](CC(N)=O)C(=O)N[C@H](C(=O)N1C[C@H](O)C[C@H]1C(N)=O)[C@@H](C)O)C(C)C)[C@@H](C)O)N(C)C(=O)[C@H](C)NC(=O)CN(C)C(=O)[C@H](Cc1ccccc1)NC(=O)[C@H](CO)NC(=O)[C@H](CO)NC(=O)[C@H](CCCNC(=N)N)NC(=O)[C@H](CCC(N)=O)NC(=O)[C@H](CC(C)C)NC(=O)[C@H](Cc1ccccc1)NC(=O)[C@H](CCCC(=O)O)NC(=O)[C@H](C)NC(=O)[C@H](CC(C)C)NC(=O)[C@H](CCCNC(=N)N)NC(=O)[C@H](CCC(N)=O)NC(=O)[C@@H](NC(=O)[C@H](C)NC(=O)[C@@H]1CCCCNC(=O)C[C@H](NC(=O)[C@H](CCCCN)NC(=O)CC[C@H](NC(=O)CCCCCCCCCCCCCCCCCCC(=O)O)C(=O)O)C(=O)NCC(=O)N[C@@H]([C@@H](C)O)C(=O)N[C@@H](C)C(=O)N[C@@H]([C@@H](C)O)C(=O)N1)[C@@H](C)O [Compound 39, [19CD]-isoGlu-KD()GTATK()ATQRLA-Aad-FLQRSSF-Gly(Me)-Alle(Me)-LSSTEVGSNTHyp-NH2] ({C20 diacid-γGlu}-KDGTATKATQRLA[Aad]FLQRSSF[Sar]A[NMeI]LSSTEVGSNT[Hyp]-NH2; lactam 2-7) | 9.2% | 76%
3 | 0.008 nM | FD | FND | FND | <1% | – | <1% | – | 0.028 nM | 1.1% | – | CC[C@H](C)[C@@H](C(=O)N[C@@H](CC(C)C)C(=O)N[C@@H](CO)C(=O)N[C@@H](CO)C(=O)N[C@H](C(=O)N[C@@H](CCC(=O)O)C(=O)N[C@H](C(=O)NCC(=O)N[C@@H](CO)C(=O)N[C@@H](CC(N)=O)C(=O)N[C@H](C(=O)N1C[C@H](O)C[C@H]1C(N)=O)[C@@H](C)O)C(C)C)[C@@H](C)O)N(C)C(=O)[C@H](C)NC(=O)CN(C)C(=O)[C@H](Cc1ccccc1)NC(=O)[C@H](CO)NC(=O)[C@H](CO)NC(=O)[C@H](CCCNC(=N)N)NC(=O)[C@H](CCC(N)=O)NC(=O)[C@H](CC(C)C)NC(=O)[C@H](Cc1ccccc1)NC(=O)[C@H](CCCC(=O)O)NC(=O)[C@H](C)NC(=O)[C@H](CC(C)C)NC(=O)[C@H](CCCNC(=N)N)NC(=O)[C@H](CCC(N)=O)NC(=O)[C@@H](NC(=O)[C@H](C)NC(=O)[C@@H]1CCCCNC(=O)C[C@H](NC(=O)[C@H](CCCNC(=N)N)NC(=O)CC[C@H](NC(=O)CCCCCCCCCCCCCCCCCCC(=O)O)C(=O)O)C(=O)NCC(=O)N[C@@H]([C@@H](C)O)C(=O)N[C@@H](C)C(=O)N[C@@H]([C@@H](C)O)C(=O)N1)[C@@H](C)O [Compound 40, [19CD]-isoGlu-RD()GTATK()ATQRLA-Aad-FLQRSSF-Gly(Me)-A-Ile(Me)-LSSTEVGSNT-Hyp-NH2] ({C20 diacid-γGlu}-RDGTATKATQRLA[Aad]FLQRSSF[Sar]A[NMeI]LSSTEVGSNT[Hyp]-NH2; lactam 2-7) | 7.3% | 83%
4 | 0.024 nM | FND | FND | FND | <1% | <1% | <1% | <1% | 0.095 nM | <1% | 1.1% | CC[C@H](C)[C@@H](C(=O)N[C@@H](CC(C)C)C(=O)N[C@@H](CO)C(=O)N[C@@H](CO)C(=O)N[C@H](C(=O)N[C@@H](CCC(=O)O)C(=O)N[C@H](C(=O)NCC(=O)N[C@@H](CO)C(=O)N[C@@H](CC(N)=O)C(=O)N[C@H](C(=O)N1C[C@H](O)C[C@H]1C(N)=O)[C@@H](C)O)C(C)C)[C@@H](C)O)N(C)C(=O)[C@H](C)NC(=O)CN(C)C(=O)[C@H](Cc1ccccc1)NC(=O)[C@H](CO)NC(=O)[C@H](CO)NC(=O)[C@H](CCCNC(=N)N)NC(=O)[C@H](CCC(N)=O)NC(=O)[C@H](CC(C)C)NC(=O)[C@H](Cc1ccccc1)NC(=O)[C@H](CC(=O)O)NC(=O)[C@H](C)NC(=O)[C@H](CC(C)C)NC(=O)[C@H](CCCNC(=N)N)NC(=O)[C@H](CCC(N)=O)NC(=O)[C@@H](NC(=O)[C@H](C)NC(=O)[C@@H]1CCCCNC(=O)C[C@H](NC(=O)[C@H](CCCNC(=N)N)NC(=O)CC[C@H](NC(=O)CCCCCCCCCCCCCCCCCCC(=O)O)C(=O)O)C(=O)NCC(=O)N[C@@H]([C@@H](C)O)C(=O)N[C@@H](C)C(=O)N[C@@H]([C@@H](C)O)C(=O)N1)[C@@H](C)O [Compound 41, [19CD]-isoGlu-RD()GTATK()ATQRLADFLQRSSF-Gly(Me)-A-Ile(Me)-LSSTEVGSNT-Hyp-NH2] ({C20 diacid-γGlu}-RDGTATKATQRLADFLQRSSF[Sar]A[NMeI]LSSTEVGSNT[Hyp]-NH2; lactam 2-7) | 11% | 75%
